Measurements taken from publication PMC10035389, “Safety, Tolerability, and Pharmacokinetics of TAK-931, a Cell Division Cycle 7 Inhibitor, in Patients with Advanced Solid Tumors: A Phase I First-in-Human Study” (Cancer Research Communications, 2022).

Key:
Assay type in all cases: in vivo, human
[1] = system: skin phosphorylated MCM2 (pMCM2; a CDC7 substrate); assay: pMCM2 IHC (H-score) in skin punch biopsies
Excerpt: The primary objectives were to evaluate safety, tolerability, and to identify the MTD of TAK-931. Secondary objectives were to characterize the pharmacokinetics of TAK-931, assess pharmacodynamic effects of TAK-931 by measuring basal and postdose levels of skin phosphorylated MCM2 (pMCM2; a CDC7 substrate), and assess preliminary clinical activity of TAK-931. An exploratory objective was to assess the pharmacodynamic effect of TAK-931 in fresh tumor biopsies after multiple doses of TAK-931 that were considered to have biological effect.
(§1) DLTs included: cycle 1 grade ≥3 hematologic and non-hematologic events or grade 2 non-hematologic events considered by the investigator to be TAK-931-related, grade 2 ejection fraction decrease, >2 weeks delay in initiating cycle 2 (1 week for schedules D and E), and >50% TAK-931 dose reduction in cycle 1 due to treatment-related adverse events (AEs; see Supplementary Materials and Methods for full DLT criteria). Toxicity was evaluated by NCI Common Terminology Criteria for Adverse Events (version 4.03). Tumor response was measured using the RECIST (version 1.1) ([16]). Serial blood samples for pharmacokinetic analysis were collected during cycle 1 on days 1 and 7 (schedule B), 1 and 8 (schedules A and D), or 1 and 9 (schedule E). Pharmacokinetic parameters were estimated from concentration–time profiles using noncompartmental methods with WinNonlin® Phoenix™ version 8.1 (Certara, Princeton, NJ). pMCM2 was detected semiquantitatively by IHC of histologic sections of formalin-fixed, paraffin-embedded skin and tumor biopsies using anti-pMCM2 (3378-1, Epitomics Inc.; ref. [15]). Quantitative image analysis determined pMCM2 levels as “histologic score nuclei (H-score).” Skin punch biopsies (2–4 mm) were obtained during screening or predose on cycle 1, day 1 and for patients in schedules A, B, and D, postdose on any drug dosing day after 3 consecutive dosing days in cycle 1. A postdose skin biopsy was obtained on day 9 in schedule E. Fresh tumor biopsy pairs were collected predose and postdose on any dosing day after the completion of 3 consecutive dosing days in cycle 1 from patients who received doses considered to have biological effect.
(§2) The safety population included patients who received ≥1 dose of TAK-931. The pharmacodynamic-evaluable population comprised patients from the safety population with a baseline and ≥1 additional postbaseline biopsy sample that was suitable for pMCM2 analysis. The pharmacokinetic-evaluable population included patients with sufficient dosing and TAK-931 concentration–time data to estimate pharmacokinetic parameters. The response-evaluable population included patients in the safety population with measurable disease at baseline and ≥1 postbaseline response assessment.

[2] = system: advanced solid tumors; assay: Tumor response by RECIST version 1.1; design: key to Best response, individual patient: PD: progressive disease; PR: partial response; SD: stable disease; conditions: for Duration of SD / Duration PR maintained: 1 patient
Method: as §1, §2

[3] = system: patients with advanced solid tumors; assay: Dose-limiting toxicities, MTD and RP2D determination (BLRM-guided dose escalation)
Excerpt: This was a phase I, open-label, dose-escalation study of single-agent TAK-931. Dose escalation of TAK-931 was cohort based with an adaptive design using Bayesian logistic regression modeling (BLRM) with pharmacokinetic guidance. BLRM also guided MTD estimation from the second dose. Patients were enrolled in one of four dosing schedules (A, B, D, or E; Supplementary Fig. S1) to receive TAK-931. Two additional schedules were planned (C and F) but no patients were enrolled. Schedule A included an initial accelerated escalation phase. TAK-931 was administered once daily for 14 days in 21-day cycles starting at 30 mg, which doubled until a cycle 1 dose-limiting toxicity (DLT) was observed, when 2 patients experienced grade ≥2 treatment-related toxicity, or when maximum geometric mean plasma concentration (Cmax) for the cohort reached or exceeded 800 ng/mL [threshold for off-target adverse effects (hypotension) in animal toxicology studies]; then dose escalation transitioned to modified Fibonacci escalation steps. In schedule B (based on experience with schedule A), patients received TAK-931 once daily or twice daily for 7 days on, 7 days off in a 28-day cycle starting at 60 mg. In schedule D, patients received TAK-931 once daily starting at 20 mg in 21-day cycles; BLRM was not applied but further adjustments were dependent on observed safety, pharmacokinetics, and pharmacodynamics. In schedule E, patients received TAK-931 once daily for 2 days on, 5 days off starting at 100 mg in 21-day cycles. A safety expansion was permitted once MTD had been determined. Prophylactic growth factors were permitted in all schedules to manage severe and/or febrile neutropenia. TAK-931 treatment continued until unacceptable toxicity, disease progression, or patient withdrawal.
as §1
A dose-limiting toxicity (DLT) was defined as any of the following events that occurred during cycle 1 and were considered by the investigator to be related to TAK-931:
Grade 4 neutropenia (ANC <500 cells/mm^3) lasting >7 consecutive days; if myeloid growth factors were used, the event was considered a DLT irrespective of the duration
Grade ≥3 neutropenia (ANC <1000 cells/mm^3) with fever and/or infection, where fever was defined as a single temperature of >38.3°C or sustained temperature of ≥38°C for >1 hour […]

Compound: Cc1[nH]ncc1-c1cc2nc([C@@H]3CC4CCN3CC4)[nH]c(=O)c2s1 [TAK-931, simurosertib]
- Skin pMCM2 Mean H-score (StDev), Cycle 1, day 8 ([1]; Schedule A (30 mg), n = 3, baseline mean H-score 18.47 (8.45)): 10.93 (6.57)
- % of pMCM2 inhibition (Change from baseline), skin ([1]; Schedule A (30 mg), n = 3, cycle 1, day 8): 40.8%
- Skin pMCM2 Mean H-score (StDev), Cycle 1, day 8 ([1]; Schedule A (40 mg), n = 3, baseline mean H-score 19.53 (3.78)): 12.87 (12.19)
- % of pMCM2 inhibition (Change from baseline), skin ([1]; Schedule A (40 mg), n = 3, cycle 1, day 8): 34.1%
- Skin pMCM2 Mean H-score (StDev), Cycle 1, day 8 ([1]; Schedule A (50 mg), n = 14, baseline mean H-score 10.50 (5.85)): 3.76 (5.42)
- % of pMCM2 inhibition (Change from baseline), skin ([1]; Schedule A (50 mg), n = 14, cycle 1, day 8): 64.2%
- Skin pMCM2 Mean H-score (StDev), Cycle 1, day 8 ([1]; Schedule A (60 mg), n = 3, baseline mean H-score 10.93 (1.94)): 1.00 (0.60)
- % of pMCM2 inhibition (Change from baseline), skin ([1]; Schedule A (60 mg), n = 3, cycle 1, day 8): 90.9%
- Skin pMCM2 Mean H-score (StDev), Cycle 1, day 8 ([1]; Schedule B (60 mg), n = 3, baseline mean H-score 4.40 (2.96)): 0.67 (0.46)
- Skin pMCM2 Mean H-score (StDev), Cycle 1, day 8 ([1]; Schedule B (80 mg), n = 9, baseline mean H-score 12.72 (2.02)): 3.54 (6.19)
- % of pMCM2 inhibition (Change from baseline), skin ([1]; Schedule B (80 mg), n = 9, cycle 1, day 8): 72.2%
- % of pMCM2 inhibition (Change from baseline), skin ([1]; Schedule D (20 mg), baseline n = 6, cycle 1, day 8 n = 4): 77.1%
- Skin pMCM2 Mean H-score (StDev), Cycle 1, day 8 ([1]; Schedule D (20 mg), baseline n = 6, cycle 1, day 8 n = 4, baseline mean H-score 22.05 (24.52)): 5.05 (2.90)
- Skin pMCM2 Mean H-score (StDev), Cycle 1, day 8 ([1]; Schedule D (30 mg), n = 6, baseline mean H-score 33.32 (23.43)): 6.43 (5.17)
- % of pMCM2 inhibition (Change from baseline), skin ([1]; Schedule D (30 mg), n = 6, cycle 1, day 8): 80.7%
- Duration of SD ([2]; cervical cancer, schedule A (50 mg)): 11.33 months
- Duration of SD ([2]; cervical cancer, schedule D (40 mg)): 15.24 months
- Duration PR maintained ([2]; cervical squamous cell cancer, schedule A 60 mg): 2.2 months
- Duration PR maintained ([2]; duodenal squamous cell cancer, schedule A 30 mg): 2.1 months
- Duration PR maintained ([2]; esophageal cancer, schedule B 100 mg): 4.2 months
- Duration PR maintained ([2]; esophageal squamous cell cancer, schedule A 50 mg): 2.7 months
- Duration of SD ([2]; thymic cancer, schedule A (50 mg)): 10.45 months
- CR (complete response) as best response ([2]; Schedule A n = 24): 0 n (%) [95% CI]
- CR (complete response) as best response ([2]; Schedule B n = 23): 0 n (%) [95% CI]
- CR (complete response) as best response ([2]; Schedule D n = 17): 0 n (%) [95% CI]
- ORR (overall response rate), investigator's assessment ([2]; Schedule D n = 17): 0 n (%) [95% CI]
- PR (partial response) as best response ([2]; Schedule D n = 17): 0 n (%) [95% CI]
- CR (complete response) as best response ([2]; Schedule E n = 11): 0 n (%) [95% CI]
- ORR (overall response rate), investigator's assessment ([2]; Schedule E n = 11): 0 n (%) [95% CI]
- PR (partial response) as best response ([2]; Schedule E n = 11): 0 n (%) [95% CI]
- Patients achieving a partial response ([2]; overall): 5 patients
- Patients with best response of SD ([2]; overall): 28 patients
- Share of patients with SD or PR having esophageal, thymic, or cervical cancer ([2]; overall): 39%
- Median progression-free survival ([2]; overall, 95% confidence interval, 1.94–3.06): 2.2 months
- Overall response rate (ORR) ([2]; schedule A): 13%
- Best response, individual patient ([2]; schedule A, 30 mg, cancer type Duodenal): PR
- Best response, individual patient ([2]; schedule A, 30 mg, cancer type Pancreatic): SD
- Best response, individual patient ([2]; schedule A, 30 mg, cancer type Rectal): PD
- Best response, individual patient ([2]; schedule A, 40 mg, cancer type Breast): PD
- Best response, individual patient ([2]; schedule A, 40 mg, cancer type Rectal): PD
- Best response, individual patient ([2]; schedule A, 40 mg, cancer type Unknown): SD
- Best response, individual patient ([2]; schedule A, 60 mg, cancer type Cervical): PR
- Best response, individual patient ([2]; schedule A, 60 mg, cancer type Ovarian): SD
- Best response, individual patient ([2]; schedule A, 60 mg, cancer type Pancreatic): SD
- Overall response rate (ORR) ([2]; schedule B): 9%
- Recommended phase II dose ([3]; once daily days 1–14 in 21-day cycles): 50 mg
- Patients with DLTs (grade 4 neutropenia) ([3]; schedule A): 2 patients
- Patients with DLT of grade 4 neutropenia lasting >3 days ([3]; schedule A, 60 mg): 2 of 3
- Maximum tolerated dose (MTD) ([3]; schedule A: once daily days 1–14 of 21-day cycle): 50 mg
- Patients with DLT of grade 3 febrile neutropenia ([3]; schedule B): 3 n
- Patients with DLT of grade 4 neutropenia ([3]; schedule B): 1 n
- Patients with DLTs ([3]; schedule B): 4 patients
- Patients with DLT of grade 3 febrile neutropenia ([3]; schedule B, 80 mg): 2 of 9
- Patients with DLT of grade 4 neutropenia lasting >7 days ([3]; schedule B, 100 mg): One of 6
- Patients with DLT of grade 3 febrile neutropenia ([3]; schedule B, 120 mg): one of six
- Maximum tolerated dose (MTD) ([3]; schedule B: days 1–7 and 15–21 of 28-day cycle): 100 mg
- Patients with DLT of grade 4 neutropenia ([3]; schedule D, 40 mg): 1 patient
- Patients with DLT of grade 3 febrile neutropenia ([3]; schedule E, 150 mg): a second patient
- Patients with DLT of grade 4 neutropenia ([3]; schedule E, 150 mg): 1 patient
